This assay concerns Aedes aegypti. The assay can be described thus: Warm Body Assay, in-vitro repulsion of mosquitoes. Particulars: 100% at concentration 0. The method, then:
The arthropod controlling effect according to the present invention is determined on mosquitoes using an adapted Warm Body assay as defined in Kröber T, Kessler S, Frei J, Bourquin M, Guerin P M. An in vitro assay for testing mosquito controlling compounds employing a warm body and carbon dioxide as a behavioral activator. J Am Mosq Control Assoc. 2010; 26:381-386.
The controlling effect according to the present invention is determined by testing the Warm Body assay against the yellow fever mosquito, Aedes aegypti Rockefeller strain. […] Observations of controlling efficacy were made on host-seeking females of uniform age, 5 to 10 days old selected as mentioned in the publication mentioned hereinabove. Tested hungry females had access to 10% sugar solution but were not blood-fed.
(§1) The published protocol has been adapted in not manually counting the landing mosquitoes but automatically using an automatic counting software, the switch from Anopheles gambiae to A. aegypti led to a decrease of mosquitoes' number placed in the tested cage due to the size difference (i.e. 30 mosquitoes instead of 50) and to an increase of lighting as A. aegypti is a diurnal mosquitoes (i.e. 150 lux instead of 4 lux).
The controlling efficacy in vitro was by an adapted Warm Body assay as defined in Kröber T, Kessler S, Frei J, Bourquin M, Guerin P M. An in vitro assay for testing mosquito controlling compounds employing a warm body and carbon dioxide as a behavioral activator. J Am Mosq Control Assoc. 2010; 26:381-386. The controlling effect according to the present invention is determined by testing the Warm Body assay against the yellow fever mosquito, A. aegypti Rockefeller strain.
as §1, with “Observations of controlling efficacy were made on host-seeking females of uniform age, 5 to 10 days old selected as mentioned in the publication mentioned hereinabove. Tested hungry females had access to 10% sugar solution but were not blood-fed. The” for “The”
In this in-vitro assay the number of A. aegypti landing on a warm body treated with the tested stimuli was measured in order to assess the repellency effect. […]

On to `CCN(CC)C(=O)c1cccc(C)c1` [DEET, N,N-diethyl-3-methylbenzamide], for which the “Mean ± SD of normalized repulsion of mosquitoes Aedes aegypti” value is given as 90% ± 9% (concentration 0.016 mg/mL); 42% ± 7% (concentration 0.08 mg/mL); 11% ± 5% (concentration 0.4 mg/mL); 2% ± 1% (concentration 2 mg/mL); 3% ± 3% (concentration 10 mg/mL).
The corresponding values for `CCCCN(CCC(=O)OCC)C(C)=O` [IR3535, ethyl butylacetylaminopropionate] are 103% ± 20%, 108% ± 14%, 31% ± 5%, 22% ± 9% and 11% ± 2%.

The values are drawn from patent US20220142158A1, “ARTHROPOD CONTROL COMPOSITIONS” (FIRMENICH SA, priority 2019, published 2022).
